What is called inhibition is the change of the read-out against control, counted positive when it falls. A low value points to a response near the control.

This test has as its target T1, HIF-PH2 (EGLN1) (Homo sapiens, UniProt Q9GZT9).
T1 construct: made in house; host or cells: insect Hi5 cells
Briefly: HIF-PH assay (14CO2 capture, peptide-dependent turnover). In kind it is biochemical. To be noted: Concentration 22.22 μM. The text has this: Ketoglutaric acid α-[1-^14C]-sodium salt, alpha-ketoglutaric acid sodium salt, and HPLC purified peptide may be obtained from commercial sources, e.g., Perkin-Elmer (Wellesley Mass.), Sigma-Aldrich, and SynPep Corp. (Dublin Calif.), respectively. Peptides for use in the assay may be fragments of HIFα as described above or as disclosed in International Publication WO 2005/118836, incorporated by reference herein. For example, a HLF peptide for use in the HIF-PH assay is [methoxycoumarin]-DLDLEALAPYIPADDDFQL-amide. HIF-PH, e.g., HIF-PH2 (EGLN1), can be expressed in, e.g., insect Hi5 cells, and partially purified, e.g., through a SP ion exchange chromatography column. Enzyme activity is determined by capturing ^14CO2 using an assay described by Kivirikko and Myllyla (1982, Methods Enzymol. 82:245-304). Assay reactions contain 50 mM HEPES (pH 7.4), 100 μM α-ketoglutaric acid sodium salt, 0.30 μCi/mL ketoglutaric acid α-[1-^14C]-sodium salt, 40 μM FeSO4, 1 mM ascorbate, 1541.8 units/mL Catalase, with or without 50 μM peptide substrate and various concentrations of compound of the invention. Reactions are initiated by addition of HIF-PH enzyme.
The peptide-dependent percent turnover is calculated by subtracting percent turnover in the absence of peptide from percent turnover in the presence of substrate peptide. Percent inhibition and IC50 are calculated using peptide-dependent percent turnover at given inhibitor concentrations. Calculation of IC50 values for each inhibitor is conducted using GraFit software (Erithacus Software Ltd., Surrey UK). […]

T1 sequence (Q9GZT9 whole entry, species assumed): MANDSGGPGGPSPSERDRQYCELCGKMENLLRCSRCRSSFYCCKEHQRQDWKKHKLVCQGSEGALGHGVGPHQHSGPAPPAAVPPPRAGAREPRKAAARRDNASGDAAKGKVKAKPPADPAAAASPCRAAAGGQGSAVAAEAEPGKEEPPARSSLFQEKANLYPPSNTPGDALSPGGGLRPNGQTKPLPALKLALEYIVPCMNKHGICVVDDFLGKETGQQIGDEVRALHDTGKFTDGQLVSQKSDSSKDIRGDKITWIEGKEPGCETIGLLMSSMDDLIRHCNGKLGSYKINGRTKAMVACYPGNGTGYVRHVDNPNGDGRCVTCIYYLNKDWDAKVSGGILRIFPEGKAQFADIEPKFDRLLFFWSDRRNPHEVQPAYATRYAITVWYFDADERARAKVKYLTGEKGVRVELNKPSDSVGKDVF

For the compound `N#Cc1cccc(-c2noc3cnc(C(=O)NCC(=O)O)c(O)c23)c1` [Example 67, {[3-(3-Cyano-phenyl)-4-hydroxy-isoxazolo[5,4-c]pyridine-5-carbonyl]-amino}-acetic acid], testing at 22.22 µM gave an inhibition of 98.4%.

As for `N#Cc1ccc(-c2noc3cnc(C(=O)NCC(=O)O)c(O)c23)cc1` [Example 68, {[3-(4-Cyano-phenyl)-4-hydroxy-isoxazolo[5,4-c]pyridine-5-carbonyl]-amino}-acetic acid], the inhibition at 22.22 µM amounted to 97.4%. For `O=C(O)CNC(=O)c1ncc2onc(-c3ccc(Oc4ccccc4)cc3)c2c1O` [Example 69, {[4-Hydroxy-3-(4-phenoxy-phenyl)-isoxazolo[5,4-c]pyridine-5-carbonyl]-amino}-acetic acid] the value was 99.8%.

Consider `Cc1noc2cnc(C(=O)NCC(=O)O)c(O)c12` [Example 70, [(4-Hydroxy-3-methyl-isoxazolo[5,4-c]pyridine-5-carbonyl)-amino]-acetic acid], for which the inhibition at 22.22 µM is 99.3%.

As for `Cc1noc2c(-c3ccccc3)nc(C(=O)NCC(=O)O)c(O)c12` [Example 71, [(4-Hydroxy-3-methyl-7-phenyl-isoxazolo[5,4-c]pyridine-5-carbonyl)-amino]-acetic acid], at 22.22 µM the inhibition was 97.5%. For `Cc1nc(C(=O)NCC(=O)O)c(O)c2c(C)noc12` [Example 72, [(4-Hydroxy-3,7-dimethyl-isoxazolo[5,4-c]pyridine-5-carbonyl)-amino]-acetic acid], 22.22 µM produced 94.6% inhibition. In turn, `Cc1nc(C(=O)NCC(=O)O)c(O)c2c(-c3ccc(OC(F)(F)F)cc3)noc12` [Example 73, {[4-Hydroxy-7-methyl-3-(4-trifluoromethoxy-phenyl)-isoxazolo[5,4-c]pyridine-5-carbonyl]-amino}-acetic acid] returned an inhibition at 22.22 µM of 97.4%.

For the compound `COc1ccc(-c2noc3c(C)nc(C(=O)NCC(=O)O)c(O)c23)cc1` [Example 74, {[4-Hydroxy-3-(4-methoxy-phenyl)-7-methyl-isoxazolo[5,4-c]pyridine-5-carbonyl]-amino}-acetic acid], the inhibition at 22.22 µM was 94.4%.

As to `O=C(O)CNC(=O)c1ncc2onc(-c3ccc(Cl)cc3Cl)c2c1O` [Example 75, {[3-(2,4-Dichloro-phenyl)-4-hydroxy-isoxazolo[5,4-c]pyridine-5-carbonyl]-amino}-acetic acid], the inhibition at 22.22 µM is 98%.

For the compound `CS(=O)(=O)c1ccc(-c2noc3cnc(C(=O)NCC(=O)O)c(O)c23)cc1` [Example 76, {[4-Hydroxy-3-(4-methanesulfonyl-phenyl)-isoxazolo[5,4-c]pyridine-5-carbonyl]-amino}-acetic acid], the inhibition at 22.22 µM turned out to be 99.4%.

The values are drawn from patent US8269008B2, “Oxazolopyridine and isoxazolopyridine derivatives for use in the treatment of HIF-mediated conditions” (FibroGen, Inc., priority 2007, dated 2012).
